Results reported in patent US20030139424A1, “Use” (priority 2001, published 2003).

Test system: ob/ob mice
Experiment: Effect on food intake (and total motor activity) by single dose subcutaneous administration in ob/ob mice, operant test cage system (Eater meter)
Assay type: in vivo, mouse
Details: male ob/ob mice
Text: Effect on Food Intake of N,N-Dimethyl 2-[1-(benzenesulphonyl)-5-methoxy-1H-indol-3-yl]ethylamine by single dose subcutaneous administration in ob/ob mice.
Obese (ob/ob) mouse is selected as the primary animal model for screening as this mutant mouse consumes high amounts of food resulting in a high signal to noise ratio. To further substantiate and compare efficacy data, the effect of the compounds on food consumption is also studied in wild type (C57BL/6J) mice. The amount of food consumed during 15 hours of infusion of compounds is recorded.
Male mice (obese C57BL/6JBom-Lep^ob and lean wild-type C57B1/6JBom; Bomholtsgaard, Denmark) 8-9 weeks with an average body weight of 50 g (obese) and 25 g (lean) are used in all the studies. The animals are housed singly in cages at 23±1° C., 40-60% humidity and have free access to water and standard laboratory chow. The 12/12-h light/dark cycle is set to lights off at 5 p.m. The animals are conditioned for at least one week before start of study.
The test compound, N,N-Dimethyl 2-[1-(benzenesulphonyl)-5-methoxy-1H-indol-3-yl]ethylamine, was dissolved in 25% Polyetylenglykol 400 (PEG 400) plus 0.1% Tween 80. +sodium actetate till pH 5. Doses of […] were used. […]
The animals were divided into four groups containing 8 animals each and treated with vehicle plus three dosages of the test compound. Food consumption, total motor activity and water consumption were measured continuously for 22 h following start of recording in a computer-assisted operant test cage system (Eater meter). […] On the fourth day the animals were treated with test compound just before dark onset (5 pm) and data recorded cumulatively for 3 h, 6 h, 12 h and 21 h. Water consumption during 22 h was also measured by weighing the days before and after treatment.
Animals were randomized according to body weight and treatment assigned in a cage- and room-wise order. […] Spillage at other time points were calculated proportionally to that of the 22 h spillage. The values are expressed as mean±SEM both as the change in gram from basal level and as percent of basal level. […]

COc1ccc2c(c1)c(CCN(C)C)cn2S(=O)(=O)c1ccccc1 [N,N-Dimethyl 2-[1-(benzenesulphonyl)-5-methoxy-1H-indol-3-yl]ethylamine]
decrease of food intake (single sc dose 10, 30, 50 mg salt/kg, at 6 h and 12 h following administration, significant, FIG. 1): 15-20% | dose dependence of food intake effect (single sc dose 10, 30, 50 mg salt/kg, all doses overlapped): not dose-dependent | approximate minimum effective dose for food intake (single sc dose, borderline statistical significance of 15-20% inhibition): ~10 mg/kg
